The numbers were not newly measured in patent US20130072576A1, “Cationic Nanogels For Biotechnological Applications” (Universidad Del Pais Vasco, priority 2010, published 2013), which cites them from elsewhere.

As for `C=CN1CCCCCC1=O` [VCL, N-vinylcaprolactam], the solubility in water is on record as 8.5 % by weight.
